Laboratory results taken from patent publication US20040043942A1, “Vitamin preparations for reducing oxygen consumption during physical efforts” (priority 1996, published 2004).
Several values for one entry are separate records, joined by “and”; a condition that tells them apart may be missing. Equal values may be shown once.

How the values were obtained:
[1] = test system: muscle glycogen synthesis; test: stimulation of glycogen synthesis and of anaerobic glucose breakdown in the muscle (general statement); format: in vivo; conditions: even if taken together with vitamin B1 and vitamin C
[2] = test system: two male individuals, trained for endurance cycling; test: Example 39 a): ergometer test, medicaments and Preparations applied 15 minutes before the test; format: in vivo, human
Experimental: Analogously to Example 37, the following studies a) to c) were carried out on two male individuals, trained for endurance cycling and kept on a permanently carbohydrate-rich diet; individual A (weighing 67 kg) having a maximum oxygen uptake capacity of 3.3 l and an oxygen transport volume per heart beat of 29 ml (corresponding to 0.6 kJ), and individual B (weighing 74 kg) having a maximum oxygen uptake capacity of 4.5 l and an oxygen transport volume per heart beat of 36 ml (corresponding to 0.75 kJ). The following preparations were used, in which the indicated amounts correspond to one dose unit and which were obtained by dissolving or suspending the components in water and gelling the mixture:
H-Gly-Gly-OH was bought from Novabiochem, Läufelfingen, Switzerland. Insulin was injected subcutaneously, while the other medicaments were ingested alone or together with one of Preparations I-IV.
a) In a first study, insulin or antidiabetic sulphonylurea derivatives were applied, alone or in combination with gelatin and/or Preparation I or II, 15 minutes before the tests. In the tests, individual A was subjected to a workload of 100 W (60 r.p.m.) for 15 minutes (tests A1-A8), and individual B was subjected to a workload of 175 W (60 r.p.m.) for 10 minutes (tests B9-B29).

Molecule | stimulation of glycogen synthesis and of the anaerobic glucose breakdown in the muscle (in words) [1] | effect on heat production and oxygen consumption induced by constant physical work loads (in words) ([2]; applied 15 minutes before the test) | Oxygen consumption ([2]; individual B, 175 W for 10 min, 15 min before: 5 I.U. insulin s.c., 2.5 mg glibenclamide alone, with 5 mg gelatin: 100 μg glibenclamide or 10 mg chlorpropamide, Prep. one dose unit)
O=C(CO)[C@@H](O)[C@H](O)[C@H](O)CO [fructose] | ineffective |  | 
OC[C@H]1O[C@@](CO)(O[C@H]2O[C@H](CO)[C@@H](O)[C@H](O)[C@H]2O)[C@@H](O)[C@@H]1O [sucrose] | ineffective |  | 
insulin |  | increase the heat production and oxygen consumption | 32 liter and 33 liter (2×)
